# Laboratory results as given in patent US20130197043A1, “USE OF THE FETAL REPROGRAMMING OF A PPAR AGONIST” (SNU R&DB FOUNDATION, priority 2010, published 2013).
# Columns and labels:
# [1] = Pharmacokinetic experiment: passage of PPAR δ agonist through the placenta; assay type: in vivo, mice
# Description: Pharmacokinetic experiment was conducted in order to confirm whether or not a PPAR δ agonist used in the present study, CMDD1111, passes through the placenta. CMDD 1111 was administered to 16-day pregnant mice at a concentration of 10 mg/kg, and then concentrations of the compound distributed in the bloods of mother animals and fetuses were analyzed for 24 hours. […] In the case of the fetuses, the blood concentration thereof tended to increase with the time, unlike the mother animals, and the maximum blood concentration thereof was 8.9 μM.
# hPPARa = molecular target: T1, hPPARa (Homo sapiens, UniProt Q07869); experiment: Transfection assay in CV-1 cells, hPPARa; assay type: cell-based; conditions: luciferase reporter
# T1 construct: expressed in transfected cells; host or cells: CV-1 cells
# T1 sequence (Q07869 1-468): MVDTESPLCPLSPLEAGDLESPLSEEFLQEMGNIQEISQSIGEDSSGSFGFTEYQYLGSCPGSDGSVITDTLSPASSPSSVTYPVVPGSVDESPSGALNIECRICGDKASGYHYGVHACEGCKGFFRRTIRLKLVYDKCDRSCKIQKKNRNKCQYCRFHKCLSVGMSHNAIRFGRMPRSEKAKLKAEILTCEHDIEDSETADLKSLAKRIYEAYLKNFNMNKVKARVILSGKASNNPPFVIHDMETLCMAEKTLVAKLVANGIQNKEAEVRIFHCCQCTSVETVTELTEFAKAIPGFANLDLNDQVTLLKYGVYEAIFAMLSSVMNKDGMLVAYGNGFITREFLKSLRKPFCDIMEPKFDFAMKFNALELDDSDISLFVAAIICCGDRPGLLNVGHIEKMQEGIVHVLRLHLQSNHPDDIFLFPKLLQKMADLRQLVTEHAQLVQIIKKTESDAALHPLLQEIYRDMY
# Description: (§1) This assay was conducted by using CV-1 cells. The cells were cultured on a 96-well plate with a DMEM medium containing 10% FBS, DBS (delipidated), and 1% penicillin/streptomycin in 37° C. of an incubator 5% of carbon dioxide. Test was conducted in four stages of cell inoculation, transfection, treatment with the developed material, and result confirmation. The CV-1 cells were inoculated on the 96-well plate at a cell density at 5,000 cells/well, and after 24 hours, transfection was performed. PPARs plasmid DNA, reporter DNA, and β-galactosidase DNA were mixed with a transfection reagent, and then used to treat the cells. The developed material was dissolved in dimethylsulfoxide (DMSO), and then was used to treat the cells by using media at various concentrations. After 24 hours of culturing in an incubator, the cells were lysed with a lysis buffer and luciferase activity and β-galactosidase activity were measured using a luminometer and a microplate reader. The measured luciferase value was calibrated with the β-galactosidase value, and this value was depicted on a graph and EC50 was determined.
# HDL in serum = experiment: High-density lipoprotein cholesterol (HDL) in serum; assay type: in vivo; conditions: mice fed 10% fat feedstuff over 6 weeks
# Text: High-density lipoprotein cholesterol (HDL) has been known to play an important role in treating lipid metabolic disorders such as arteriosclerosis and hyperlipidemia while lowering the cholesterol level of an epidermal cell and mitigating an inflammatory reaction. Serum was separated from the mice fed over a 6-week period of feedstuff containing 10% fat in order to confirm the high-density cholesterol increase effect of Compounds 5 and 9, which were the developed materials of the present invention.
# hPPARg = molecular target: T2, hPPARg (Homo sapiens, UniProt P37231); experiment: Transfection assay in CV-1 cells, hPPARg; assay type: cell-based; conditions: luciferase reporter
# T2 construct: expressed in transfected cells; host or cells: CV-1 cells
# T2 sequence (P37231 1-505): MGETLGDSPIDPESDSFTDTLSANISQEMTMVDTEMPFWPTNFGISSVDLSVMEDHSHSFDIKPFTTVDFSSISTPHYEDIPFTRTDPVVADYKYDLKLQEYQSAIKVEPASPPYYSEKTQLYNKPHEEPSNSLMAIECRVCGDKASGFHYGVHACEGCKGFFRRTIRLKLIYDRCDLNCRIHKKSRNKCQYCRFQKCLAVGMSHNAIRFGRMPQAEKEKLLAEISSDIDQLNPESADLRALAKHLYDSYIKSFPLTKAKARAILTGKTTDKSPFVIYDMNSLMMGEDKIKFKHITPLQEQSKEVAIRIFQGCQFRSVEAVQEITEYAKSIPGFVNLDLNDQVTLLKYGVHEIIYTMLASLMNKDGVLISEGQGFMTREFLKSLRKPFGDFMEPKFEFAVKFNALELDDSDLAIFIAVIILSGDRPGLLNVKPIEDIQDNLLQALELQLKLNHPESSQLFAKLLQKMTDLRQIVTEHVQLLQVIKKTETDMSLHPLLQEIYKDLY
# Description: as §1
# ApoE−/− mice = experiment: Arteriosclerosis prevention and treatment, en face analysis of arteries; assay type: in vivo; conditions: 14 weeks feedstuff, dosed over the last 4 weeks
# Description: The in vivo test using ApoE−/− mice was conducted in order to verify the arteriosclerosis prevention and treatment effect of Compounds 5 and 9, the developed materials of the present invention. ApoE−/− mice, as an arteriosclerosis disease model, were fed with […] feedstuff (21% high fat and 1.25% high cholesterol feedstuff) over 14 weeks, to thereby induce arteriosclerosis, and then Compounds 5 and 9 were administered to the mice over the last 4 weeks. The medicine treatment manner was adopted. Arteries of the mice were resected, and then analyzed by the en face method. As the result, it was confirmed that Compounds 5 and 9 had 23% and 18% decreases in occurrence of arteriosclerosis, respectively.
# [2] = test system: C57BL/6 mice with obesity induced by 35% fat feedstuff; experiment: Obesity suppression effect in high-fat diet mice; assay type: in vivo; conditions: 10 mg/kg/day oral, 60-day high-fat diet (35% fat)
# Description: Test using mice was conducted in order to confirm the in vivo effect of the material according to the present invention. 8-week old C57BL/6 mice were used, and feedstuff containing 35% fat was used to induce obesity. A. vehicle and Compounds 5 and […] were orally administered. over 60-day period of high-fat diet.
Structure (SMILES),"passage through the placenta ([1]; 16-day pregnant mice, 10 mg/kg)","half-life ([1]; female, mouse, blood, oral, mother animals, 16-day pregnant mice, 10 mg/kg, read-out: half-time (t1/2) (converted))","Cmax ([1]; female, mouse, blood, oral, mother animals, 16-day pregnant mice, 10 mg/kg, read-out: maximum blood concentration (Cmax))","Tmax ([1]; female, mouse, blood, oral, mother animals, 16-day pregnant mice, 10 mg/kg, read-out: time for reaching the maximum blood concentration (Tmax))","maximum blood concentration ([1]; fetuses, mother given 10 mg/kg, 24 hours)",EC50 hPPARa (hPPARa),HDL increase in serum (HDL in serum),EC50 hPPARg (hPPARg),decrease in occurrence of arteriosclerosis (ApoE−/− mice),obesity suppression effect versus vehicle control [2]
Cc1cc(SC(Cc2ccccc2)c2sc(-c3ccc(C(F)(F)F)cc3)nc2C)ccc1OCC(=O)O (stereo not drawn) [CMDD1111],passed through the placenta,9 h,38 µM,1 h,8.9 µM,,,,,
Cc1cc(SC(Cc2ccc(-c3ccccc3)cc2)c2sc(-c3ccc(C(F)(F)F)cc3)nc2C)ccc1OCC(=O)O (stereo not drawn) [Compound 5],,,,,,ia,68%,ia,23%,35%
Cc1cc(SC(Cc2ccc(-c3ccc(F)cc3)cc2)c2sc(-c3ccc(C(F)(F)F)cc3)nc2C)ccc1OCC(=O)O (stereo not drawn) [Compound 9],,,,,,ia,62%,ia,18%,33%
